Results on six molecules are retold here after patent publication US7148236B2, “Modulators of acetylcholine receptors” (Merck & Co., Inc., priority 2002, dated 2006).

Each structure is given as a SMILES string.

`CN1[C@@H]2CC[C@H]1C[C@H](Sc1cc3c(cc1Cl)[nH]c(=O)n3C)C2` came in with a melting point of 206.4 to 207.2 °C.
As to `CCCn1c(=S)[nH]c2ccc(S[C@@H]3C[C@H]4CC[C@@H](C3)N4C)c(Cl)c21`, the melting point fell in the range of 131.4 to 133.9 °C.
`CC(C)n1c(=S)[nH]c2ccc(S[C@@H]3C[C@H]4CC[C@@H](C3)N4C)c(Cl)c21` showed a melting point of 228.9 to 230.9 °C.
The same measure for `CN1[C@@H]2CC[C@H]1C[C@H](Sc1ccc3[nH]c(=O)n(C)c3c1Cl)C2.Cl`: > 260 °C.
The same measure for `CN1[C@@H]2CC[C@H]1C[C@H](Sc1ccc3[nH]c(=O)[nH]c(=O)c3c1)C2`: > 260 °C; for `CN1[C@@H]2CC[C@H]1C[C@H](Sc1ccc3[nH]c(=O)[nH]c3c1)C2`: 178.5 to 181.6 °C.

The term melting point denotes the temperature, or range, at which the solid turns liquid.
